Assay results: PMC9293210, “Molecular Recognition of Natural and Non‐Natural Substrates by Cellodextrin Phosphorylase from Ruminiclostridium Thermocellum Investigated by NMR Spectroscopy” (Chemistry (Weinheim an Der Bergstrasse, Germany), 2021)
pKd: −log10 of the molar value. Blank lines part the entries; values can stand above or below the compound they belong to.

Tests used:
[1] = target: T1, cellodextrin phosphorylase (CDP) (Acetivibrio thermocellus, UniProt Q93HT8); assay: STD NMR titration (STD-AF of H4beta, […] s saturation); format: binding; settings: [D11]Tris 25 mM pH 7.4, NaCl 100 mM; no phosphate; apparent
T1 construct: gene cdp-ym4; 1009 amino acids, 114 kDa per monomer, homodimer
T1 sequence (Q93HT8 1-984): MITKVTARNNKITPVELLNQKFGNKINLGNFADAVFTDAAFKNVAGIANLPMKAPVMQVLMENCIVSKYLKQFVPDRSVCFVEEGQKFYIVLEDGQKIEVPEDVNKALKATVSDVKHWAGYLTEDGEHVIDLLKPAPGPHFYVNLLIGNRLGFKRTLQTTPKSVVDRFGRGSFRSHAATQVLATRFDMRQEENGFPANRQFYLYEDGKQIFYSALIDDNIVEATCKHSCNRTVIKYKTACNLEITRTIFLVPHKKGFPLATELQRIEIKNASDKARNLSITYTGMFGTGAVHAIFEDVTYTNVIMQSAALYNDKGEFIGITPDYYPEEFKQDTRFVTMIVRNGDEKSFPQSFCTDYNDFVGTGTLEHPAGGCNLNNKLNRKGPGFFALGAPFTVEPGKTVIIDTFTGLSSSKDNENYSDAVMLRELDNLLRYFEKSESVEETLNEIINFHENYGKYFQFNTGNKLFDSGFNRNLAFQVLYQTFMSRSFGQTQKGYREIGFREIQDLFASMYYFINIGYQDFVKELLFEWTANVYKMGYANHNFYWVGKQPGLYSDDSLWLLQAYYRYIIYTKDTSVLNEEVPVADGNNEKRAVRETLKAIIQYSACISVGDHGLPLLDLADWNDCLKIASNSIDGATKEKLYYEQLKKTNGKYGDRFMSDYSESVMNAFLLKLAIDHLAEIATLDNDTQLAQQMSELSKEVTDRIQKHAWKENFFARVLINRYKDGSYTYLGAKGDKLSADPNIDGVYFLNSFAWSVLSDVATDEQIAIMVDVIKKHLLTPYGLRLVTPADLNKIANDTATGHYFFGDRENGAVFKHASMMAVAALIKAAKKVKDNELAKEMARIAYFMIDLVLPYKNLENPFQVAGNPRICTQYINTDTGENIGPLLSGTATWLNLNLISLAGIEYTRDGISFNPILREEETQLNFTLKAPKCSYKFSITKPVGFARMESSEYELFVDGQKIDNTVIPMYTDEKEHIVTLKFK

[2] = target: T1, cellodextrin phosphorylase (CDP); assay: STD NMR, binding epitope mapping; settings: [D11]Tris 25 mM pH 7.4, NaCl 100 mM, 278 K; 3 mM ligand, 15 uM binding sites; acceptor site
[3] = target: T1, cellodextrin phosphorylase (CDP); assay: STD NMR, binding epitope mapping; tr-NOESY; settings: [D11]Tris 25 mM pH 7.4, NaCl 100 mM, 278 K (STD); tr-NOESY 290 K; 3 mM ligand, 15 uM binding sites (STD); acceptor site

pKd [1]: 2.66
SMILES: OC[C@H]1O[C@@H](O[C@H]2[C@H](O)[C@@H](O)C(O)O[C@@H]2CO)[C@H](O)[C@@H](O)[C@@H]1O (stereo partly drawn) [D-cellobiose]

SMILES: OC[C@H]1O[C@@H](O[C@H]2[C@H](O)[C@@H](O)[C@H](O[C@H]3[C@H](O)[C@@H](O)C(O)O[C@@H]3CO)O[C@@H]2CO)[C@H](O)[C@@H](O)[C@@H]1O (stereo partly drawn) [D-cellotriose]
STD NMR, binding epitope mapping [2]: D‐cellotriose showed contacts for both the reducing α‐ and β‐glucose rings

SMILES: OC[C@H]1O[C@@H](O[C@H]2[C@H](O)[C@@H](CO)OC(O)[C@@H]2O)[C@H](O)[C@@H](O)[C@@H]1O (stereo partly drawn) [D-laminaribiose]
STD NMR, binding epitope mapping; tr-NOESY [3]: H2 of the non‐reducing glucose ring received the largest saturation transfer
